Test system: KRAS-mutant PDC multicell tumor spheroid viability
Assay: Anticancer human tumor 521955-158-R2-J5-PDC patient-derived pancreatic carcinoma cell line growth inhibition [KRAS2]
Conditions: for IC50: curve of first compound; for viability, T/C: stronger effect = lower value
Procedure, shortened: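 Combination screen of spheroid viability in tumor-cell co-cultures with endothelial (HUVEC) and mesenchymal stem cell stroma. Each agent was tested in half-log dilutions, topping at clinical Cmax or at 10 microM without a known Cmax.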

[1] = second compound 0.1 µM, first compound 0.0316 µM
[2] = second compound 0.1 µM, first compound 0.1 µM
[3] = second compound 0.1 µM, first compound 0.316 µM
[4] = second compound 0.1 µM, first compound 1 µM
[5] = second compound 0.1 µM, first compound 3.16 µM
[6] = second compound 0.1 µM, first compound 10 µM
[7] = second compound 0.316 µM, first compound 0.0316 µM
[8] = second compound 0.316 µM, first compound 0.1 µM
[9] = second compound 0.316 µM, first compound 0.316 µM
[10] = second compound 0.316 µM, first compound 1 µM
[11] = second compound 0.316 µM, first compound 3.16 µM
[12] = second compound 0.316 µM, first compound 10 µM
[13] = second compound 1 µM, first compound 0.0316 µM
[14] = second compound 1 µM, first compound 0.1 µM
[15] = second compound 1 µM, first compound 0.316 µM
[16] = second compound 1 µM, first compound 1 µM
[17] = second compound 1 µM, first compound 3.16 µM
[18] = second compound 1 µM, first compound 10 µM
[19] = second compound 3.16 µM, first compound 0.0316 µM
[20] = second compound 3.16 µM, first compound 0.1 µM
[21] = second compound 3.16 µM, first compound 0.316 µM
[22] = second compound 3.16 µM, first compound 1 µM
[23] = second compound 3.16 µM, first compound 3.16 µM
[24] = second compound 3.16 µM, first compound 10 µM
[25] = second compound 10 µM, first compound 0.0316 µM
[26] = second compound 10 µM, first compound 0.1 µM
[27] = second compound 10 µM, first compound 0.316 µM
[28] = second compound 10 µM, first compound 1 µM
[29] = second compound 10 µM, first compound 3.16 µM
[30] = second compound 10 µM, first compound 10 µM
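Also: viability read after seven days of drug exposure.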

Compound | IC50 (second compound 0.1 µM) | IC50 (second compound 0.316 µM) | IC50 (second compound 1 µM) | IC50 (second compound 3.16 µM) | IC50 (second compound 10 µM) | viability, T/C [1] | viability, T/C [2] | viability, T/C [3] | viability, T/C [4] | viability, T/C [7] | viability, T/C [8] | viability, T/C [9] | viability, T/C [10] | viability, T/C [13] | viability, T/C [14] | viability, T/C [15] | viability, T/C [16] | viability, T/C [19] | viability, T/C [20] | viability, T/C [21] | other results
COc1cc2nccc(Oc3ccc(NC(=O)C4(C(=O)Nc5ccc(F)cc5)CC4)cc3)c2cc1OC + C=CC(=O)N1CCN(c2nc(=O)n(-c3c(C)ccnc3C(C)C)c3nc(-c4c(O)cccc4F)c(F)cc23)C(C)C1 | 6550 nM | 5780 nM | 3980 nM | 2500 nM | 1240 nM | 114% | 122% | 113% | 124% | 107% | 111% | 117% | 108% | 109% | 119% | 114% | 112% | 83.7% | 109% | 94.4% | viability, T/C [5]: 78.4%; viability, T/C [6]: 33.5%; viability, T/C [11]: 66.8%; viability, T/C [12]: 34.7%; viability, T/C [17]: 54.2%; viability, T/C [18]: 32.9%; viability, T/C [22]: 75.4%; viability, T/C [23]: 44.2%; viability, T/C [24]: 20.9%; viability, T/C [25]: 55.2%; viability, T/C [26]: 64.1%; viability, T/C [27]: 58.7%; viability, T/C [28]: 53.9%; viability, T/C [29]: 32.6%; viability, T/C [30]: 10.4%
CCN1CCN(Cc2ccc(Nc3ncc(F)c(-c4cc(F)c5nc(C)n(C(C)C)c5c4)n3)nc2)CC1 + COc1cc2nc(C)nc(NC(C)c3cc(N)cc(C(F)(F)F)c3)c2cc1OC1CCOC1 | > 1000 nM | > 1000 nM | > 1000 nM | > 1000 nM | 464 nM | 79.2% | 79.9% | 85.4% | 76.7% | 79.4% | 71.7% | 85.4% | 76% | 87.5% | 77.4% | 87.7% | 80.8% | 89.3% | 76.7% | 83.2% | viability, T/C (second compound 0.1 µM, first compound 0.00316 µM): 88.2%; viability, T/C (second compound 0.1 µM, first compound 0.01 µM): 84.9%; viability, T/C (second compound 0.316 µM, first compound 0.00316 µM): 92%; viability, T/C (second compound 0.316 µM, first compound 0.01 µM): 89.9%; viability, T/C (second compound 1 µM, first compound 0.00316 µM): 93.1%; viability, T/C (second compound 1 µM, first compound 0.01 µM): 80.2%; viability, T/C (second compound 3.16 µM, first compound 0.00316 µM): 90.5%; viability, T/C (second compound 3.16 µM, first compound 0.01 µM): 101%; viability, T/C [22]: 73%; viability, T/C (second compound 10 µM, first compound 0.00316 µM): 82.9%; viability, T/C (second compound 10 µM, first compound 0.01 µM): 76%; viability, T/C [25]: 74.4%; viability, T/C [26]: 91%; viability, T/C [27]: 74.7%; viability, T/C [28]: 0.5%
CC(C)NCC(C(=O)N1CCN(c2ncnc3c2C(C)CC3O)CC1)c1ccc(Cl)cc1 (centres undefined) + C=CC(=O)N1CCN(c2nc(=O)n(-c3c(C)ccnc3C(C)C)c3nc(-c4c(O)cccc4F)c(F)cc23)C(C)C1 | > 10000 nM | > 10000 nM | > 10000 nM | 293 nM | 134 nM | 102% | 105% | 77.7% | 78% | 116% | 100% | 74.4% | 64.4% | 106% | 94.9% | 64.1% | 54.5% | 94.8% | 82.8% | 46.5% | viability, T/C [5]: 76.5%; viability, T/C [6]: 67%; viability, T/C [11]: 65.3%; viability, T/C [12]: 58.6%; viability, T/C [17]: 58.2%; viability, T/C [18]: 53.2%; viability, T/C [22]: 43.2%; viability, T/C [24]: 31%; viability, T/C [25]: 69.5%; viability, T/C [26]: 56.2%; viability, T/C [27]: 32.1%; viability, T/C [28]: 19.7%; viability, T/C [29]: 19.2%; viability, T/C [30]: 13.2%
COC(=O)c1ccc2c(C(=Nc3ccc(N(C)C(=O)CN4CCN(C)CC4)cc3)c3ccccc3)c(O)[nH]c2c1 + COc1cc2nc(C)nc(NC(C)c3cc(N)cc(C(F)(F)F)c3)c2cc1OC1CCOC1 | 2010 nM | 2710 nM | 1840 nM | 1780 nM | < 31.6 nM | 113% | 118% | 118% | 138% | 96.5% | 105% | 100% | 102% | 96.8% | 90.3% | 108% | 102% | 111% | 94.7% | 112% | viability, T/C [5]: 3.03%; viability, T/C [6]: 0.16%; viability, T/C [11]: 42.1%; viability, T/C [12]: 0.17%; viability, T/C [17]: 6.39%; viability, T/C [18]: 0.16%; viability, T/C [22]: 99.6%; viability, T/C [23]: 0.72%; viability, T/C [24]: 0.58%; viability, T/C [25]: 17.9%; viability, T/C [26]: 15.5%; viability, T/C [27]: 2.96%; viability, T/C [28]: 0.51%; viability, T/C [29]: 0.17%; viability, T/C [30]: 0.22%
CC1OCC2(CCN(c3cnc(Sc4ccnc(N)c4Cl)c(N)n3)CC2)C1N (centres undefined) + COc1cc2nc(C)nc(NC(C)c3cc(N)cc(C(F)(F)F)c3)c2cc1OC1CCOC1 | > 10000 nM | > 10000 nM | > 10000 nM | > 10000 nM | 4270 nM | 87.6% | 83.6% | 77.6% | 75.9% | 82.3% | 97.1% | 85.9% | 71.9% | 105% | 92.1% | 82.4% | 74.4% | 111% | 102% | 88% | viability, T/C [5]: 72.5%; viability, T/C [6]: 56.6%; viability, T/C [11]: 64.2%; viability, T/C [12]: 55.4%; viability, T/C [17]: 72.1%; viability, T/C [18]: 62.5%; viability, T/C [22]: 83.8%; viability, T/C [23]: 80.3%; viability, T/C [24]: 84.6%; viability, T/C [25]: 90.4%; viability, T/C [26]: 84.7%; viability, T/C [27]: 76.9%; viability, T/C [28]: 65.9%; viability, T/C [29]: 58.5%; viability, T/C [30]: 35%
